In paper PMC11467430 (Scientific Reports, 2024):

What was measured:
Candida rugosa lipase = conditions: read-out: IC50 against lipase; positive control; ref Chupeerach et al., 2022[35]; cited from earlier work
rabbit lung ACE = molecular target: T1, rabbit lung ACE (Oryctolagus cuniculus, UniProt P12822); test: ACE inhibitory assay; format: biochemical; conditions: IC50 against ACE, positive control; performed in this study
T1 sequence (P12822 34-1310): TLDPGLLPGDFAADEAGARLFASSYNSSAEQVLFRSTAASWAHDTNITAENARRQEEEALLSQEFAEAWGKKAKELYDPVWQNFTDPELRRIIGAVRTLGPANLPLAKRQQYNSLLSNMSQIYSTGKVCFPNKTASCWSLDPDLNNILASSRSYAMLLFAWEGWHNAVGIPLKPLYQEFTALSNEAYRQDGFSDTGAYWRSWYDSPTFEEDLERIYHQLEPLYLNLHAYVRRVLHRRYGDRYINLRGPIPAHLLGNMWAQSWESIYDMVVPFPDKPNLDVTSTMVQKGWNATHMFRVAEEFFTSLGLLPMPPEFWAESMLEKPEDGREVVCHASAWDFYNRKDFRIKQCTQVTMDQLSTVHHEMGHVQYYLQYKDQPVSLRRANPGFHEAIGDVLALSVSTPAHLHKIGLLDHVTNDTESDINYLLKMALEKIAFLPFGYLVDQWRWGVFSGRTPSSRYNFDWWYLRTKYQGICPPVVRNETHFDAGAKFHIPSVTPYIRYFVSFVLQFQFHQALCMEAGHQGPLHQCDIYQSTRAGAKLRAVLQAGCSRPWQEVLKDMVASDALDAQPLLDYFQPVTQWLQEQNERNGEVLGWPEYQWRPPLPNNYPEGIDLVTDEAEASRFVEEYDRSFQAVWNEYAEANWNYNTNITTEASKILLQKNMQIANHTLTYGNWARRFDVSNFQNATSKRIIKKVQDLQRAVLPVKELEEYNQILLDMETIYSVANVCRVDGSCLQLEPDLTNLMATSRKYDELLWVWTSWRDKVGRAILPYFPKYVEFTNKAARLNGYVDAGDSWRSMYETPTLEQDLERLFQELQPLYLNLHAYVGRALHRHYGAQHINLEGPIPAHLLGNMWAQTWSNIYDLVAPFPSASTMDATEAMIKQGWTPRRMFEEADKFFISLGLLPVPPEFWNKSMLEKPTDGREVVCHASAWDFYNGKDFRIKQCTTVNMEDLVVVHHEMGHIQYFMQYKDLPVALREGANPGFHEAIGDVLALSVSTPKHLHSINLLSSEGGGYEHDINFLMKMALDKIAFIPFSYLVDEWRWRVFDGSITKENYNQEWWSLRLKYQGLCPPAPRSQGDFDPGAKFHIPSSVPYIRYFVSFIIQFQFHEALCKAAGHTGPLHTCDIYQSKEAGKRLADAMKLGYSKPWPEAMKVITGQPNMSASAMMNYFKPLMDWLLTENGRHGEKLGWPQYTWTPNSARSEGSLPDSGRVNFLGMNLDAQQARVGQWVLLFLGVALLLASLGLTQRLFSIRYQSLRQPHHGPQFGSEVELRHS

Row | Compound | IC50 (Candida rugosa lipase) | IC50 (rabbit lung ACE)
1 | CCCCCCCCCCC[C@@H](C[C@@H]1OC(=O)[C@H]1CCCCCC)OC(=O)[C@H](CC(C)C)NC=O [Orlistat, orlistat] | 7.94 µM | 
2 | NCCCC[C@H](N[C@@H](CCc1ccccc1)C(=O)O)C(=O)N1CCC[C@H]1C(=O)O [Lisinopril, lisinopril] |  | 0.00179 µM
